Assay results as given in patent publication US20250109132A1, “COMPOUNDS AND METHODS FOR TREATING FRIEDREICH'S ATAXIA” (Design Therapeutics, Inc., priority 2022, published 2025).

Test system: human FXN
Test: EC50 Assay: FXN mRNA expression by qRT-PCR in GM15850 cells
Format: cell-based
Details: GM15850 cell suspension, 48 hrs incubation, hFXN expression normalized to hGAPDH, 5-point 3-fold dose response, read-out: EC50 WT (nM, 48 hr)
Procedure: Cell culture: Cells were cultured in RPMI1640 medium+15% FBS. Cells were maintained at a density between […]. Cells were centrifuged, resuspended in fresh medium, counted and plated at 150,000 cells per well in 100 μL in a non-coated, flat bottom tissue culture plate.
Compound treatment: 10 mM stock solution of FA GeneTAC was diluted 1:10 in DMSO followed by a 1:100 dilution in growth medium. Working solution was then further diluted to 1OX desired final concentration of 150 nM. Compound was then diluted at a 1:3 ratio into growth medium containing 0.01% DMSO. 5-point, 3-fold dose response curve was generated. 11 μL of 10× compound was added to wells containing 100 μL cell suspension of GM15850. 11 μL growth medium containing 0.01% DMSO was added to all wells not treated with FA GeneTAC. Cells were allowed to incubate for 48 hrs prior to cell lysis using guanidine isothiocyanate solution.
RNA isolation: Total RNA was isolated and purified in 384-well column filter plates using chaotropic salt.
qRT-PCR: qRT-PCR reactions were assembled using AgPath-ID reagents (Thermo Fisher) using 6 μL mastermix and 4 μL RNA. qRT-PCR TaqMan primer probe sets against human FXN (Assay ID Hs01075496 ml) and human GAPDH (Assay ID Hs00266705_g1) were used to measure the intended targets. qRT-PCR was run on the ThermoFisher QuantStudio 6 PRO instrument using the manufacturer's recommended cycling conditions.
Data analysis: qPCR data was analyzed using Thermo Fisher Design and Analysis software. Data was exported to Excel and hFXN expression was normalized to hGAPDH expression
A<100 nM; B is 100 nM to 500 nM; C>500 nM.

| Compound | EC50 [nM] |
| --- | --- |
| COC(C)(C)c1ccc(Oc2c(C)cc(F)cc2C)c(-c2cn(C)c(=O)c3[nH]c(C(=O)Nc4ccc(OCCOCCOCCOCCOCCOCCOCCOCCOCCNC(=O)CCNC(=O)c5nc(NC(=O)CCNC(=O)c6cc(NC(=O)c7nc(NC(=O)CCNC(=O)c8cc(NC(=O)c9nccn9C)cn8C)cn7C)cn6C)cn5C)cc4)cc23)c1 [Compound 1] | < 100 |
| Cc1cc(F)cc(C)c1Oc1ccc(S(C)(=O)=O)cc1-c1cn(C)c(=O)c2[nH]c(C(=O)Nc3ccc(OCCOCCOCCOCCOCCOCCOCCOCCOCCNC(=O)CCNC(=O)c4nc(NC(=O)CCNC(=O)c5cc(NC(=O)c6nc(NC(=O)CCNC(=O)c7cc(NC(=O)c8nccn8C)cn7C)cn6C)cn5C)cn4C)cc3)cc12 [Compound 2] | < 100 |
| CCS(=O)(=O)c1ccc(Oc2c(C)cc(F)cc2C)c(-c2cn(C)c(=O)c3[nH]c(C(=O)Nc4ccc(OCCOCCOCCOCCOCCOCCOCCOCCOCCNC(=O)CCNC(=O)c5nc(NC(=O)CCNC(=O)c6cc(NC(=O)c7nc(NC(=O)CCNC(=O)c8cc(NC(=O)c9nccn9C)cn8C)cn7C)cn6C)cn5C)cc4)cc23)c1 [Compound 3] | < 100 |
| COCCOCCOCCOCCOCCOCCOc1cc(NC(=O)c2cc3c(-c4cc(C(C)(C)O)ccc4Oc4c(C)cc(F)cc4C)cn(C)c(=O)c3[nH]2)ccc1OCCOCCOCCOCCOCCOCCOCCOCCOCCNC(=O)CCNC(=O)c1nc(NC(=O)CCNC(=O)c2cc(NC(=O)c3nc(NC(=O)CCNC(=O)c4cc(NC(=O)c5nccn5C)cn4C)cn3C)cn2C)cn1C [Compound 4] | < 100 |
| Cc1cc(F)cc(C)c1Oc1ccc(C(C)(C)O)cc1-c1cn(C)c(=O)c2[nH]c(C(=O)NCc3cn(CCOCCOCCOCCOCCOCCOCCOCCOCCNC(=O)CCNC(=O)c4nc(NC(=O)CCNC(=O)c5cc(NC(=O)c6nc(NC(=O)CCNC(=O)c7cc(NC(=O)c8nccn8C)cn7C)cn6C)cn5C)cn4C)nn3)cc12 [Compound 5] | < 100 |
| Cc1cc(F)cc(C)c1Oc1ccc(C(C)(C)O)cc1-c1cn(C)c(=O)c2[nH]c(C(=O)NCc3ccc(OCCOCCOCCOCCOCCOCCOCCOCCOCCNC(=O)CCNC(=O)c4nc(NC(=O)CCNC(=O)c5cc(NC(=O)c6nc(NC(=O)CCNC(=O)c7cc(NC(=O)c8nccn8C)cn7C)cn6C)cn5C)cn4C)cc3)cc12 [Compound 6] | < 100 |
| Cc1cc(F)cc(C)c1Oc1ccc(C(C)(C)O)cc1-c1cn(C)c(=O)c2[nH]c(C(=O)Nc3ccc(OCCOCCOCCOCCOCCOCCOCCOCCOCCNC(=O)c4nc(NC(=O)CCNC(=O)c5cc(NC(=O)c6nc(NC(=O)CCNC(=O)c7cc(NC(=O)c8nccn8C)cn7C)cn6C)cn5C)cn4C)cc3)cc12 [Compound 7] | < 100 |
| Cc1cc(F)cc(C)c1Oc1ccc(C(C)(C)O)cc1-c1cn(C)c(=O)c2[nH]c(C(=O)Nc3ccc(OCCOCCOCCOCCOCCOCCOCCOCCOCCNC(=O)c4nc(NC(=O)CCNC(=O)c5cc(NC(=O)c6nc(NC(=O)CCNC(=O)c7cc(NC(=O)c8nccn8C)c[nH]7)cn6C)c[nH]5)cn4C)cc3)cc12 [Compound 9] | < 100 |
| Cc1cc(F)cc(C)c1Oc1ccc(C(C)(C)O)cc1-c1cn(C)c(=O)c2[nH]c(C(=O)Nc3ccc(OCCOCCOCCOCCOCCOCCOCCOCCOCCNC(=O)CCNC(=O)CCNC(=O)c4nc(NC(=O)CCNC(=O)c5cc(NC(=O)c6nc(NC(=O)CCNC(=O)c7cc(NC(=O)c8nccn8C)cn7C)cn6C)cn5C)cn4C)cc3)cc12 [Compound 10] | < 100 |
| Cc1cc(F)cc(C)c1Oc1ccc(C(C)(C)O)cc1-c1cn(C)c(=O)c2[nH]c(C(=O)Nc3ccc(OCCOCCOCCOCCOCCOCCNC(=O)CCNC(=O)c4nc(NC(=O)CCNC(=O)c5cc(NC(=O)c6nc(NC(=O)CCNC(=O)c7cc(NC(=O)c8nccn8C)cn7C)cn6C)cn5C)cn4C)cc3)cc12 [Compound 11] | < 100 |
| Cc1cc(F)cc(C)c1Oc1ccc(C(C)(C)O)cc1-c1cn(C)c(=O)c2[nH]c(C(=O)Nc3ccc(OCCOCCOCCOCCOCCOCCOCCOCCOCCNC(=O)CCNC(=O)c4nc(NC(=O)CCNC(=O)c5cc(NC(=O)c6nc(NC(=O)CCNC(=O)c7cc(NC(=O)c8nccn8C)cn7C)cn6C)cn5C)cn4C)c(O)c3)cc12 [Compound 12] | < 100 |
| Cc1cc(F)cc(C)c1Oc1ccc(C(C)(C)O)cc1-c1cn(C)c(=O)c2[nH]c(C(=O)Nc3ccc(OCCOCCOCCOCCOCCOCCOCCOCCOCCNC(=O)CCNC(=O)c4nc(NC(=O)CCNC(=O)c5cc(NC(=O)c6nc(NC(=O)CCNC(=O)c7cc(NC(=O)c8nccn8C)cn7C)cn6C)cn5C)cn4C)cc3)cc12 [Compound 15] | < 100 |
| CCNC(=O)c1cc2c(-c3cc(C(C)(C)O)ccc3Oc3c(C)cc(OCCOCCOCCOCCOCCOCCOCCOCCOCCNC(=O)CCNC(=O)c4nc(NC(=O)CCNC(=O)c5cc(NC(=O)c6nc(NC(=O)CCNC(=O)c7cc(NC(=O)c8nccn8C)cn7C)cn6C)cn5C)cn4C)cc3C)cn(C)c(=O)c2[nH]1 [Compound 17] | < 100 |
